Test results taken from ChEMBL document CHEMBL1136019, “Structure-based optimisation of 2-aminobenzylstatine derivatives: potent and selective inhibitors of the chymotrypsin-like activity of the human 20S proteasome” (Bioorg Med Chem Lett, 2002).

What follows are compounds tested against 20S proteasome (assay: Tested in vitro for inhibition of chymotrypsin like activity of purified human 20S proteasome).
Assay type: subcellular

| SMILES | IC50 [nM] |
| --- | --- |
| COc1ccc(CN[C@@H](C(=O)N[C@H](C(=O)NCc2ccc(OC)cc2O)C(C)C)[C@H](O)[C@H](Cc2ccccc2)NC(=O)[C@@H](NC(=O)OCc2ccccc2)C(C)(C)C)cc1 | 900 |
| COc1ccc(CNC(=O)[C@@H](NC(=O)[C@H](NCc2ccc(Oc3ccccc3)cc2)[C@H](O)[C@H](Cc2ccccc2)NC(=O)[C@@H](NC(=O)OCc2ccccc2)C(C)(C)C)C(C)C)c(O)c1 | > 20000 |
| COc1cccc(CN[C@@H](C(=O)N[C@H](C(=O)NCc2ccc(OC)cc2O)C(C)C)[C@H](O)[C@H](Cc2ccccc2)NC(=O)[C@@H](NC(=O)OCc2ccccc2)C(C)(C)C)c1 | 1500 |
| COc1ccc(CNC(=O)[C@@H](NC(=O)[C@H](NCc2ccc(C(C)C)cc2)[C@H](O)[C@H](Cc2ccccc2)NC(=O)[C@@H](NC(=O)OCc2ccccc2)C(C)(C)C)C(C)C)c(O)c1 | 1600 |
| COc1ccc(CNC(=O)[C@@H](NC(=O)[C@H](NCc2ccc(-c3ccccc3)cc2)[C@H](O)[C@H](Cc2ccccc2)NC(=O)[C@@H](NC(=O)OCc2ccccc2)C(C)(C)C)C(C)C)c(O)c1 | > 20000 |
| COc1ccc(CNC(=O)[C@@H](NC(=O)[C@H](NCc2cc(OC)c(OC)cc2OC)[C@H](O)[C@H](Cc2ccccc2)NC(=O)[C@@H](NC(=O)OCc2ccccc2)C(C)(C)C)C(C)C)c(O)c1 | 200 |
| COc1cc(CN[C@@H](C(=O)N[C@H](C(=O)NCc2ccc(OC)cc2O)C(C)C)[C@H](O)[C@H](Cc2ccccc2)NC(=O)[C@@H](NC(=O)OCc2ccccc2)C(C)(C)C)cc(OC)c1 | 190 |
| COc1ccc(CNC(=O)[C@@H](NC(=O)[C@H](NCc2ccccc2)[C@H](O)[C@H](Cc2ccccc2)NC(=O)[C@@H](NC(=O)OCc2ccccc2)C(C)(C)C)C(C)C)c(O)c1 | > 20000 |
| COc1ccc(CNC(=O)[C@@H](NC(=O)[C@H](NCc2ccccc2OC)[C@H](O)[C@H](Cc2ccccc2)NC(=O)[C@@H](NC(=O)OCc2ccccc2)C(C)(C)C)C(C)C)c(O)c1 | > 20000 |
| COc1ccc(CNC(=O)[C@@H](NC(=O)[C@H](NCc2ccc(OC)cc2OC)[C@H](O)[C@H](Cc2ccccc2)NC(=O)[C@@H](NC(=O)OCc2ccccc2)C(C)(C)C)C(C)C)c(O)c1 | 1600 |
| COc1ccc(CNC(=O)[C@@H](NC(=O)[C@H](NCc2ccc(N(C)C)cc2)[C@H](O)[C@H](Cc2ccccc2)NC(=O)[C@@H](NC(=O)OCc2ccccc2)C(C)(C)C)C(C)C)c(O)c1 | 600 |

Stronger by IC50, values ahead:

| IC50 [nM] | SMILES |
| --- | --- |
| 160 | COc1ccc(CNC(=O)[C@@H](NC(=O)[C@H](NCc2ccc(N(C)C)cc2)[C@H](O)[C@H](Cc2ccccc2)NC(=O)[C@@H](NC(=O)Cc2cccc3ccccc23)C(C)(C)C)C(C)C)c(O)c1 |
| 150 | COc1ccc(CNC(=O)[C@@H](NC(=O)[C@H](NCc2ccc(OC)c(OC)c2)[C@H](O)[C@H](Cc2ccccc2)NC(=O)[C@@H](NC(=O)OCc2ccccc2)C(C)(C)C)C(C)C)c(O)c1 |
| 100 | COc1ccc(CN[C@@H](C(=O)N[C@H](C(=O)NCc2ccc(OC)cc2O)C(C)C)[C@H](O)[C@H](Cc2ccccc2)NC(=O)[C@@H](NC(=O)Cc2cccc3ccccc23)C(C)(C)C)cc1 |
| 100 | COc1ccc(CNC(=O)[C@@H](NC(=O)[C@H](NCc2ccc(OC)c(OC)c2OC)[C@H](O)[C@H](Cc2ccccc2)NC(=O)[C@@H](NC(=O)OCc2ccccc2)C(C)(C)C)C(C)C)c(O)c1 |
| 50 | COc1ccc(CNC(=O)[C@@H](NC(=O)[C@H](NCc2cc(OC)c(OC)c(OC)c2)[C@H](O)[C@H](Cc2ccccc2)NC(=O)[C@@H](NC(=O)OCc2ccccc2)C(C)(C)C)C(C)C)c(O)c1 |
| 29 | COc1ccc(CNC(=O)[C@@H](NC(=O)[C@H](NCc2cc(OC)c(OC)cc2OC)[C@H](O)[C@H](Cc2ccccc2)NC(=O)[C@@H](NC(=O)Cc2cccc3ccccc23)C(C)(C)C)C(C)C)c(O)c1 |
| 18 | COc1ccc(CNC(=O)[C@@H](NC(=O)[C@H](NCc2ccc(OC)c(OC)c2OC)[C@H](O)[C@H](Cc2ccccc2)NC(=O)[C@@H](NC(=O)Cc2cccc3ccccc23)C(C)(C)C)C(C)C)c(O)c1 |
| 7 | COc1ccc(CNC(=O)[C@@H](NC(=O)[C@H](NCc2cc(OC)c(OC)c(OC)c2)[C@H](O)[C@H](Cc2ccccc2)NC(=O)[C@@H](NC(=O)Cc2cccc3ccccc23)C(C)(C)C)C(C)C)c(O)c1 |
